Test [1] deals with platelet aggregation induced by adenosine diphosphate. Kind of test: Inhibition of platelet aggregation in vitro, adenosine diphosphate. The format is cell-based. The following applies: 0.025 mg/ml, human plasma. The source says: (§1) It is well known that platelet aggregation inhibitors may be useful as anti-thrombotic drugs. Inhibition of platelet aggregation can be conveniently measured in vitro by monitoring changes in optical density and/or light transmission in platelet rich plasma upon addition of suitable aggregating agents such as adenosine diphosphate, epinephrine, thrombin or collagen. Alternatively, platelet aggregation can be measured in vitro using platelet rich plasma obtained at various time intervals from animals given inhibitors by an oral or parenteral route.
(§2) […] is incubated with modified Tyrode's solution in a proportion of 40-50% human protein rich plasma. The test compounds are added at varying concentrations and after 5 minutes incubation, an aggregating agent such as adenosine diphosphate or collagen is added. The change in optical density (light transmission) is monitored by eye and inhibition is recorded as a (-) or lack of inhibition is recorded as a (+). Test compounds are considered active if they inhibit adenosine diphosphate or collagen induced aggregation at a concentration of 0.025 mg/ml or less within 5-10 minutes.

The test system of test [2] is platelet aggregation induced by collagen. Kind of test: Inhibition of platelet aggregation in vitro, collagen. In kind it is cell-based. The settings on record: 0.025 mg/ml, human plasma.
From the text: as §1, §2

Turning to `CCCCCC(O)/C=C/C1CCC(=O)C1CCCCCCC(=O)CO` (centres unmarked), the “inhibition of platelet aggregation” value in test [1] and in test [2] was “shows inhibition of platelet aggregation” throughout.

The values are drawn from patent publication US4254285A, “1-Hydroxymethyl-1-1-oxo prostane derivatives of the E and F series” (American Cyanamid Company, priority 1979, dated 1981).
